Like-named read-outs stand apart in the source and are kept apart here. Numbered stars: 1 amine (or outer) side, 2 acyl side, 3 side chain; on linkers, the order of the positions; unused ones are H or OH. Square brackets hold non-standard residues; d marks the D form. Peptide text beside a SMILES is read from it. * marks the point of attachment. Pteroyl = Nc1nc2ncc(CNc3ccc(C(=O)*)cc3)nc2c(=O)[nH]1; γGlu = O=C(O)[C@H](CCC(=O)[*:2])N[*:1]; Dab = NCC[C@H](N)C(=O)O
Key:
[1] = system: S2-013 pancreatic cancer cells; conditions: for incorporation efficiency of siRNA: among 1 to 3 equivalents; for incorporation efficiency of siRNA compared with Dab8: best equivalent versus Dab8 of 1 to 3 equivalents
Experimental: Since it is difficult to distinguish between intracellularly incorporated labels and non-incorporated labels by flow cytometry, the uptake of siRNA into pancreatic cancer cells was observed using a confocal microscope.
The pancreatic cancer cell line 52-013 (Cell Resource Center for Biomedical Research, Institute of Development, Aging and Cancer, Tohoku University, ID: TKG 0709) was seeded in a 4-well chamber slide (Thermo Fisher Scientific Inc.) at a cell density of 2×10^4 cells/well, and scrambled control siRNA (SEQ ID NOs: 3 and 4) labeled with Alexa647 (Thermo Fisher Scientific Inc.), and Dab8, Fol-Dab8A, or Fol-Dab8B in 1 to 3 equivalents to the siRNA were added and then cultured for 48 hours. The concentration of siRNA used was 8.28 μg/mL in 25 μL, and Dab8, Fol-Dab8A, and Fol-Dab8B were diluted 25-fold from the stock solution (Dab8: 119.3 μg/mL, Fol-Dab8A and Fol-Dab8B: 141.2 μg/mL) and used. The amounts corresponding to 1, 2, and 3 equivalents relative to siRNA are 3.9 μL, 7.8 μL, and 11.7 μL, respectively.
The next day, the cells were fixed with 4% paraformaldehyde, sealed with a DAPI-containing encapsulant, and then observed with an all-in-one fluorescence microscope (BZ-X800, Keyence Corporation).
To quantify the uptake, the hybrid cell count function of the Keyence analysis software BZ-X800 Analyzer was used to count cells into which siRNA was taken up in the presence of Dab8, Fol-Dab8A, and Fol-Dab8B. Determination was made by measuring cells with dark staining of at least ⅓ of the cell nuclei and cells with dark clumps in the periphery of the cell nuclei.

S2-013 cells = test: Matrigel invasion assay; type: cell-based, human; conditions: versus scrambled control siRNA and siRNA alone
Experimental: Each of the scrambled control siRNA, SNORA18 siRNA, NUP85 siRNA, WASF2 siRNA, and SNORA22 siRNA (all used in Example 5) with the folic acid-cationic oligopeptide complex added was added to the culture solution of S2-013 cells, and Matrigel invasion assay was performed after 48 hours.
4.0×10^4 cells were suspended in a serum-free medium and seeded in the upper chamber of a Matrigel Invasion Chamber (24-well plate, pore size: 8 μm, manufactured by Becton, Dickinson, and Company). A solvent containing 5% fetal bovine serum was added to the lower chamber. After the cells were incubated in the upper chamber for 20 hours, three independent areas were observed under a microscope, and the cells invading the lower chamber were counted. The same experiment was repeated three times, and the cell invasion ability of 52-013 cells into which each siRNA was taken up was compared.
The “*” denotes a significant difference at P<0.05 as compared to the control in the t-test.
Each of the scrambled control siRNA (SEQ ID NOs: 3 and 4), SNORA18 siRNA (SEQ ID NOs: 21 and 22), NUP85 siRNA (SEQ ID NOs: 23 and 24), WASF2 siRNA (SEQ ID NOs: 25 and 26), and SNORA22 siRNA (SEQ ID NOs: 27 and 28) was added with 2 equivalents of Dab8, Fol-Dab8A, or Fol-Dab8B to the culture solution of pancreatic cancer cell line S2-013 in culture. As a control, each of the control siRNA, SNORA18 siRNA, NUP85 siRNA, WASF2 siRNA, and SNORA22 siRNA was added alone to the culture solution of the S2-013 cells.
After 48 hours of culture, the Matrigel invasion assay was performed. In the Matrigel invasion assay, the number of cells that have migrated from the upper chamber to the lower chamber is shown. The “*” denotes a significant difference at P<0.05 as compared to the control in the t-test.

[2] = system: S2-013 pancreatic cancer cells or HPNE normal pancreatic duct epithelial cells; conditions: chemically-modified Alexa488-labeled SNORA22 siRNA, 2 equivalents, overnight
Excerpt: Chemically-modified SNORA22 siRNA (SEQ ID NOs: 27 and 28) prepared in Example 7 was labeled with Alexa488 (Thermo Fisher Scientific Inc.) and added with the folic acid-cationic oligopeptide complex (Fol-Dab8B, 2 equivalents) to the culture solution of S2-013 pancreatic cancer cells or HPNE normal pancreatic duct epithelial cells (ATCC) in a 4-well chamber (Thermo Fisher Scientific Inc.) (5×10^4 cells/well).

[3] = system: pancreatic cancer tissue of mice carrying human pancreatic cancer organoids derived from S2-013 pancreatic cancer cells; conditions: for delivery of SNORA22 siRNA to pancreatic cancer tissue: 5 μg siRNA tail vein, 24 hours
Experimental: Human pancreatic cancer organoids were prepared using 52-013 pancreatic cancer cells by modifying the method described in JP Patent Application Publication No. 2018-110575 A1.
Specifically, the S2-013 pancreatic cancer cells (20×10^4 cells), human mesenchymal stem cells MSC (LONZA, 40×10^4 cells), and human umbilical vein endothelial cells HUVEC (LONZA, 14×10^4 cells) were added to DMEM/Matrigel mixed solution in a 48-well plate (Thermo Fisher Scientific Inc.) and incubated in a CO2 incubator at 37° C. for 30 minutes.
Then, 300 μL/well of DMEM/EGM mixed solution was added thereto and incubated again at 37° C. for 24 hours to prepare one pancreatic cancer organoid in each well.
Subsequently, the skin on the flank of nude mice (6-week-old BALB/cSlc-nu/nu (Pathogen-free female athymic nude mice), Japan SLC, Inc.) was incised, and the pancreatic cancer organoids obtained above were subcutaneously transplanted (2 mice in each group).
Six weeks after transplantation, the chemically-modified SNORA22 siRNA (SEQ ID NOs: 27 and 28, 5 μg) labeled with Alexa-594 was administered with 1, 2, or 3 equivalents of the cationic oligopeptide (Dab8) or the folic acid-cationic oligopeptide complex (Fol-Dab8A or Fol-Dab8B) by tail vein injection. After 24 hours, images were taken with an in vivo imager.
Measuring instrument: Spectrum In Vivo Imaging System (PerkinElmer, Inc., Waltham, Mass.)
Measurement condition: kexc 640 nm, kemi 680 nm
In the same manner as in Example 11, the delivery of chemically-modified SNORA18 siRNA (SEQ ID NOs: 21 and 22) to pancreatic cancer-carrying mice when administered with the folic acid-cationic oligopeptide complex (Fol-Dab8A or Fol-Dab8B) was imaged using an in vivo imager.
In the same manner as in Examples 11 and 13, the delivery of chemically-modified WASF2 siRNA (SEQ ID NOs: 25 and 26) to pancreatic cancer-carrying mice when administered with the folic acid-cationic oligopeptide complex (Fol-Dab8A or Fol-Dab8B) was imaged using an in vivo imager.

[4] = chemically-modified NUP85 siRNA (SEQ ID NOs: 23 and 24) with 2 equivalents of peptide
[5] = chemically-modified SNORA18 siRNA (SEQ ID NOs: 21 and 22) with 2 equivalents of peptide
[6] = chemically-modified SNORA22 siRNA (SEQ ID NOs: 27 and 28) with 2 equivalents of peptide
[7] = chemically-modified WASF2 siRNA (SEQ ID NOs: 25 and 26) with 2 equivalents of peptide
[8] = chemically-modified SNORA18 siRNA, 1 to 3 equivalents
[9] = chemically-modified WASF2 siRNA, 1 to 3 equivalents
[10] = compared to Dab8, 1 to 3 equivalents

| Compound | incorporation efficiency of siRNA ([1]; 1 equivalent) | incorporation efficiency of siRNA compared with Dab8 [1] | invasion of S2-013 cells (S2-013 cells; [4]) | invasion of S2-013 cells (S2-013 cells; [5]) | invasion of S2-013 cells (S2-013 cells; [6]) | invasion of S2-013 cells (S2-013 cells; [7]) | uptake of SNORA22 siRNA into S2-013 pancreatic cancer cells relative to normal cells (HPNE) [2] | delivery of WASF2 siRNA to pancreatic cancer tissue ([3]; 1 equivalent) | delivery of SNORA22 siRNA to pancreatic cancer tissue ([3]; 2 equivalents) | delivery of WASF2 siRNA to pancreatic cancer tissue ([3]; 3 equivalents) | delivery of SNORA18 siRNA to pancreatic cancer tissue [3, 8] | delivery of WASF2 siRNA to pancreatic cancer tissue [3, 9] | delivery of SNORA22 siRNA to pancreatic cancer tissue [3, 10] | incorporation efficiency of siRNA ([1]; 3 equivalents) | delivery of SNORA18 siRNA to pancreatic cancer tissue ([3]; 1 equivalent) | delivery of SNORA18 siRNA to pancreatic cancer tissue ([3]; 3 equivalents) | delivery of SNORA22 siRNA to pancreatic cancer tissue ([3]; 3 equivalents) |
| --- | --- | --- | --- | --- | --- | --- | --- | --- | --- | --- | --- | --- | --- | --- | --- | --- | --- |
| NCC[C@H](NC(=O)[C@H](CCN)NC(=O)[C@H](CCN)NC(=O)[C@H](CCN)NC(=O)[C@H](CCN)NC(=O)[C@H](CCN)NC(=O)[C@H](CCN)NC(=O)[C@H](CCN)NC(=O)CNC(=O)CNC(=O)CNC(=O)[C@H](CCC(=O)O)NC(=O)c1ccc(NCc2cnc3nc(N)[nH]c(=O)c3n2)cc1)C(N)=O [Fol-Dab8B] (Pteroyl-EGGG[Dab][Dab][Dab][Dab][Dab][Dab][Dab][Dab]-NH2) | highest incorporation efficiency | higher than Dab8 | significantly suppressed | significantly suppressed | significantly suppressed | significantly suppressed | ~3 fold | high concentration | high concentration | high concentration | enhanced | enhanced | enhanced |  |  |  |  |
| NCC[C@H](NC(=O)[C@H](CCN)NC(=O)[C@H](CCN)NC(=O)[C@H](CCN)NC(=O)[C@H](CCN)NC(=O)[C@H](CCN)NC(=O)[C@H](CCN)NC(=O)[C@H](CCN)NC(=O)CNC(=O)CNC(=O)CNC(=O)CC[C@H](NC(=O)c1ccc(NCc2cnc3nc(N)[nH]c(=O)c3n2)cc1)C(=O)O)C(N)=O [Fol-Dab8A] ({Pteroyl-γGlu}-GGG[Dab][Dab][Dab][Dab][Dab][Dab][Dab][Dab]-NH2) |  | higher than Dab8 | significantly suppressed | significantly suppressed | significantly suppressed | significantly suppressed |  |  |  |  | enhanced | enhanced | enhanced | highest incorporation efficiency | high concentration | high concentration | high concentration |

From patent US20220380763A1, “NUCLEIC ACID DELIVERY ENHANCER” (NATIONAL UNIVERSITY CORPORATION KOCHI UNIVERSITY, priority 2019, published 2022)
